Source: article PMC8717867, “The Oxidation Cascade of a Rare Multifunctional P450 Enzyme Involved in Asperterpenoid A Biosynthesis” (Frontiers in Chemistry, 2021)

biological target: T1, mPTPB (Mycobacterium tuberculosis protein tyrosine phosphatase B) (Mycobacterium tuberculosis, UniProt I6WXK4); test: biochemical; parameters: mPTPB phosphatase inhibition, pNPP substrate, absorbance at 405 nm; details: read-out: 50 uM inhibition rate (%)
T1 construct: gene ptpB
T1 sequence (I6WXK4 whole entry, looked up): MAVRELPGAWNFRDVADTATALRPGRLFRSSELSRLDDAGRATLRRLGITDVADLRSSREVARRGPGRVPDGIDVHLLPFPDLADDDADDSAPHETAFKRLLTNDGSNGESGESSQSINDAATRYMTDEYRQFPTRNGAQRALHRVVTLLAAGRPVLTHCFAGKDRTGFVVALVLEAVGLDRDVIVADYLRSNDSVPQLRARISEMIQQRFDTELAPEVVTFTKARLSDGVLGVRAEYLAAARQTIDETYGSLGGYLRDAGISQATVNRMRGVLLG

SMILES | inhibition at 50 µM
CC(C)[C@H]1CC[C@@]2(C)CC[C@]3(CO)CC4=C(C(=O)O)CC[C@H]4[C@]4(C)C[C@@H]4[C@H]3[C@H]12 [asperterpenoid A] | 98.2%
CC(C)[C@H]1CC[C@@]2(C)CC[C@]3(C(=O)O)CC4=C(C(=O)O)CC[C@H]4[C@]4(C)C[C@@H]4[C@H]3[C@H]12 [asperterpenoid B] | 98.9%
CC(C)[C@H]1C[C@@H](O)[C@@]2(C)CC[C@]3(CO)CC4=C(C(=O)O)CC[C@H]4[C@]4(C)C[C@@H]4[C@H]3[C@H]12 [asperterpenoid C] | 45.1%
CC(C)C1CCC2(C)CCC3(C)CC4=C(C(=O)O)CCC4C4(C)CC4C3C12 (stereo not shown) [compound 1, asperterpenoid D] | 52.8%
CC(C)C1CCC2(C)CCC3(C)CC4=C(CO)CCC4C4(C)CC4C3C12 (stereo not shown) [compound 2, asperterpenoid E] | 46.8%
CC(C)C1CCC2(C)CCC3(CO)CC4=C(CO)CCC4C4(C)CC4C3C12 (stereo not shown) [compound 3, asperterpenoid F] | 48%
CC1=C2C[C@@]3(C)CC[C@]4(C)CC[C@H](C(C)C)[C@H]4[C@@H]3[C@H]3C[C@@]3(C)[C@@H]2CC1 [preasperterpenoid A] | 31.1%
